Results from a compilation of properties of binary mixtures (doi:10.1007/s10953-012-9937-x).

Assay: xn = mol fraction of the nth substance listed
Details: 298.15 K, 101 kPa

CCCCCCCCn1cc[n+](C)c1.F[B-](F)(F)F + CCC(C)=O
viscosity (x2 = 0): 336 mPa·s | viscosity (x2 = 0.209): 100.3 mPa·s | viscosity (x2 = 0.2713): 69.9 mPa·s | viscosity (x2 = 0.3991): 34.24 mPa·s | viscosity (x2 = 0.5032): 18.4 mPa·s | viscosity (x2 = 0.551): 13.82 mPa·s | viscosity (x2 = 0.6006): 10.26 mPa·s | viscosity (x2 = 0.6442): 7.54 mPa·s | viscosity (x2 = 0.9518): 0.63 mPa·s

CCCOC(C)=O + CCCCCCCCn1cc[n+](C)c1.F[B-](F)(F)F
viscosity (x1 = 1): 0.56 mPa·s

CCOC(C)=O + CCCCCCCCn1cc[n+](C)c1.F[B-](F)(F)F
viscosity (x1 = 1): 0.44 mPa·s

CCCCCCCCn1cc[n+](C)c1.F[B-](F)(F)F + CCCCOC(C)=O
viscosity (x2 = 0): 336 mPa·s | viscosity (x2 = 0.1989): 124.4 mPa·s | viscosity (x2 = 0.3002): 74.3 mPa·s | viscosity (x2 = 0.3991): 45.91 mPa·s | viscosity (x2 = 0.502): 27.13 mPa·s | viscosity (x2 = 0.5548): 20.31 mPa·s | viscosity (x2 = 0.6024): 15.79 mPa·s | viscosity (x2 = 0.654): 11.56 mPa·s | viscosity (x2 = 0.7075): 8.27 mPa·s | viscosity (x2 = 0.8007): 4.31 mPa·s | viscosity (x2 = 0.95): 1.14 mPa·s

COC(C)=O + CCCCCCCCn1cc[n+](C)c1.F[B-](F)(F)F
viscosity (x1 = 1): 0.39 mPa·s

CCCCCCCCn1cc[n+](C)c1.F[B-](F)(F)F + CCCOC(C)=O
viscosity (x2 = 0): 336 mPa·s | viscosity (x2 = 0.1006): 198.9 mPa·s | viscosity (x2 = 0.197): 121.1 mPa·s | viscosity (x2 = 0.2972): 75.8 mPa·s | viscosity (x2 = 0.4992): 25.67 mPa·s | viscosity (x2 = 0.6013): 14.19 mPa·s | viscosity (x2 = 0.6504): 10.55 mPa·s | viscosity (x2 = 0.7065): 7.48 mPa·s | viscosity (x2 = 0.7992): 3.75 mPa·s | viscosity (x2 = 0.9043): 1.51 mPa·s | viscosity (x2 = 0.9529): 0.91 mPa·s

CCCCCCCCn1cc[n+](C)c1.F[B-](F)(F)F + CCOC(C)=O
viscosity (x2 = 0): 336 mPa·s | viscosity (x2 = 0.1092): 181 mPa·s | viscosity (x2 = 0.2953): 69.8 mPa·s | viscosity (x2 = 0.4999): 23.13 mPa·s | viscosity (x2 = 0.5507): 17.01 mPa·s | viscosity (x2 = 0.7012): 6.56 mPa·s | viscosity (x2 = 0.9005): 1.284 mPa·s

CCCCCCCCn1cc[n+](C)c1.F[B-](F)(F)F + COC(C)=O
viscosity (x2 = 0): 336 mPa·s | viscosity (x2 = 0.1173): 188 mPa·s | viscosity (x2 = 0.2964): 70 mPa·s | viscosity (x2 = 0.4063): 34.24 mPa·s | viscosity (x2 = 0.4511): 24.78 mPa·s | viscosity (x2 = 0.4964): 18.4 mPa·s | viscosity (x2 = 0.6056): 10.26 mPa·s | viscosity (x2 = 0.6519): 7.54 mPa·s | viscosity (x2 = 0.7027): 5.04 mPa·s | viscosity (x2 = 0.8989): 1.03 mPa·s

CCC(C)=O + CCCCCCCCn1cc[n+](C)c1.F[B-](F)(F)F
viscosity (x1 = 1): 0.39 mPa·s
